Values after ≈ are worked out from the molar mass of the structure shown. Like-named read-outs stand apart in the source and are kept apart here.
Legend:
P. acnes NCTC 737 [1] = assay: MBC assay; assay type: cell-based, Propionibacterium acnes
Method: (§1) 2. Propionibacterium spp.—the principal propionibacterial strain used in these studies was Propionibacterium acnes NCTC 737. This is the type strain of the genus; it is fully susceptible to antibiotics.
(§2) The Propionibacterium spp organisms were cultured and maintained on Wilkins-Chalgren Anaerobe Medium (agar and broth) at pH 6.0; cultures were incubated anaerobically at 37° C. for 72 hours.
This assay, normally carried out after an MIC assay, determines the minimum concentration of a compound that is lethal to the micro-organism being tested.
These samples were then individually sub-cultured on non-selective agar medium, under the incubation conditions described above. Following incubation they were examined visually for bacterial growth.

S. aureus ATCC 29213 [2] = assay: MIC assay; assay type: cell-based, Staphylococcus aureus
Method: 1. Staphylococcus aureus—the principal staphylococcal test micro-organism used in these studies was Staphylococcus aureus ATCC 29213. This strain is the one recommended for QC/QA purposes in Minimum Inhibitory Concentration (MIC) assays by the US Clinical and Laboratory Standards Institute (formerly the NCCLS), an FDA-recognised body. […] The staphylococci and enterococci were cultured and maintained on Mueller-Hinton Medium (agar and broth) at pH 7.2; they were incubated aerobically at 37° C. for 24 hours. This is a standard international method for quantitatively assessing the antimicrobial activity of a compound in a liquid medium. The method used a 96-well microtitre plate, capable of holding about 200 μl of liquid per well. […] The culture media were as described above for the relevant test organisms. The wells were inoculated with a liquid suspension of freshly grown micro-organism and incubated under the conditions described above. After incubation, the microtitre plate was examined visually (with the aid of a light box) for cell pellets in and/or opaque wells, which would indicate microbial growth. The MIC value was recorded as the lowest concentration of test compound required to inhibit microbial growth, ie, the lowest concentration for which the liquid in the well remained clear. The assays were conducted in duplicate and included both negative (culture medium only) and positive (culture medium, diluting solvent and inoculum) controls.

S. aureus ATCC 29213 [3] = assay: MBC assay; assay type: cell-based, Staphylococcus aureus
Method: 1. Staphylococcus aureus—the principal staphylococcal test micro-organism used in these studies was Staphylococcus aureus ATCC 29213. This strain is the one recommended for QC/QA purposes in Minimum Inhibitory Concentration (MIC) assays by the US Clinical and Laboratory Standards Institute (formerly the NCCLS), an FDA-recognised body. […] The staphylococci and enterococci were cultured and maintained on Mueller-Hinton Medium (agar and broth) at pH 7.2; they were incubated aerobically at 37° C. for 24 hours. This assay, normally carried out after an MIC assay, determines the minimum concentration of a compound that is lethal to the micro-organism being tested. […] These samples were then individually sub-cultured on non-selective agar medium, under the incubation conditions described above. Following incubation they were examined visually for bacterial growth.

P. acnes NCTC 737 [4] = assay: MIC assay; assay type: cell-based, Propionibacterium acnes
Method: as §1, §2
This is a standard international method for quantitatively assessing the antimicrobial activity of a compound in a liquid medium. The method used a 96-well microtitre plate, capable of holding about 200 μl of liquid per well. […] The culture media were as described above for the relevant test organisms.
The wells were inoculated with a liquid suspension of freshly grown micro-organism and incubated under the conditions described above. After incubation, the microtitre plate was examined visually (with the aid of a light box) for cell pellets in and/or opaque wells, which would indicate microbial growth. The MIC value was recorded as the lowest concentration of test compound required to inhibit microbial growth, ie, the lowest concentration for which the liquid in the well remained clear.
The assays were conducted in duplicate and included both negative (culture medium only) and positive (culture medium, diluting solvent and inoculum) controls.

P. acnes NCTC 737 [5] = assay: Synergy disc diffusion assay (SDDA); assay type: cell-based, Propionibacterium acnes; settings: for SDDA area increase / SDDA increase: quinone + BP; for SDDA area increase: over larger single-compound zone; for SDDA increase: over larger single-compound zone diameter; for SDDA with BP: quinone combined with BP on one disc, 200 μg of each
Method: 2. Propionibacterium spp.—the principal propionibacterial strain used in these studies was Propionibacterium acnes NCTC 737.
as §2
This is a variation on the DDA method, in which two compounds are tested together for their combined antimicrobial activity. It provides a qualitative indication as to whether the compounds are likely to interact synergistically.
Two test compounds A and B were placed on a single paper disc and the above described DDA procedure repeated.
Each of the quinones was then subjected, in combination with BP, to the SDDA assay described above.
For all (S)DDA assays, 200 μg of each compound was loaded onto each disc.

S. aureus ATCC 29213 [6] = assay: Supplemented disc diffusion assay (DDA + salt, lipid or blood); assay type: cell-based, Staphylococcus aureus; settings: 200 μg per disc (thymoquinone 50 μg); for DDA + blood: agar supplemented with blood; for DDA + lipid: agar supplemented with lipid; for DDA + salt: agar supplemented with salt
Method: The staphylococci and enterococci were cultured and maintained on Mueller-Hinton Medium (agar and broth) at pH 7.2; they were incubated aerobically at 37° C. for 24 hours. A sterile paper disc was impregnated with a sample of the test compound and a minimum of 30 minutes allowed for the solvents to evaporate as far as possible. The disc was then placed on an agar plate onto which the test micro-organism had been inoculated. The plate was then incubated under the conditions described above, following which it was examined visually for signs of bacterial growth. If the test compound had antimicrobial activity, a circular zone of no growth would be obtained around the disc. The diameter of this zone of “inhibition” was measured using a ProtoCOL™ automated zone sizer (Synbiosis, Cambridge, UK). In general, a greater diameter and/or area of the zone of inhibition indicates a greater antimicrobial activity in the relevant test compound, although other factors such as test compound mobility through the agar gel may also influence the result. Either the DDA or the SDDA tests may be carried out using an agar gel supplemented with blood, lipid and/or salt to simulate some of the major components present in human skin and to assess whether these substances might reduce the antimicrobial activity observed for the test compounds. Performance under these conditions can provide a more reliable indication of activity on topical application. […] MIC, MBC and DDA assays, as described above, were carried out using the test compound benzoyl peroxide (BP) and a range of different benzoquinones and hydroquinones. Supplemented DDA assays, in the presence of salt, lipid and blood, were also conducted. […] The exceptions were the thymoquinone assays, in which only 50 μg of the benzoquinone was used.

[7] = Cutibacterium acnes, NCTC737, P. acnes NCTC 737 (resistance None), Table 9 (Example 8)
[8] = Cutibacterium acnes, NCTC737, P. acnes NCTC 737, Table 7 (Example 6)
[9] = S. aureus ATCC 29213, Table 5 (Example 5)
[10] = Staphylococcus aureus, ATCC29213, S. aureus ATCC 29213, Table 1 (Example 1), read-out: MIC
[11] = Staphylococcus aureus, ATCC29213, S. aureus ATCC 29213, Table 1 (Example 1), read-out: MBC
[12] = Cutibacterium acnes, NCTC737, P. acnes NCTC 737, Table 7 (Example 6), read-out: MBC
[13] = Cutibacterium acnes, NCTC737, P. acnes NCTC 737, Table 7 (Example 6), read-out: MIC
[14] = P. acnes NCTC 737, Table 7 (Example 6)
[15] = S. aureus ATCC 29213, Table 1 (Example 1)

SMILES | MIC (S. aureus ATCC 29213 [2]; [15]) [µg/mL] | MIC (P. acnes NCTC 737 [4]; [14]) [µg/mL] | SDDA area increase (P. acnes NCTC 737 [5]) [%] | SDDA increase (P. acnes NCTC 737 [5]) [mm] | SDDA with BP (P. acnes NCTC 737 [5]) [mm] | DDA + blood (S. aureus ATCC 29213 [6]) [mm] | DDA + lipid (S. aureus ATCC 29213 [6]) [mm] | DDA + salt (S. aureus ATCC 29213 [6]) [mm] | MBC (P. acnes NCTC 737 [1]; [14]) [µg/mL] | MBC (S. aureus ATCC 29213 [3]; [15]) [µg/mL] | other results
O=C(OOC(=O)c1ccccc1)c1ccccc1 [benzoyl peroxide] |  |  |  |  |  |  |  |  |  |  | MBC (P. acnes NCTC 737 [1]; [7]): 31.2 µg/mL (≈ 129 µM); MBC (P. acnes NCTC 737 [1]; [8]): 62.5 µg/mL (≈ 258 µM); MIC (S. aureus ATCC 29213 [2]; [9]): 250 µg/mL (≈ 1030 µM); MIC (S. aureus ATCC 29213 [2]; [10]): 250 µg/mL (≈ 1030 µM); MBC (S. aureus ATCC 29213 [3]; [9]): 250 µg/mL (≈ 1030 µM); MBC (S. aureus ATCC 29213 [3]; [11]): 250 µg/mL (≈ 1030 µM); MIC (P. acnes NCTC 737 [4]; [7]): 15.6 µg/mL (≈ 64.4 µM); MIC (P. acnes NCTC 737 [4]; [8]): 31.2 µg/mL (≈ 129 µM)
CC(C)(C)c1cc(O)ccc1O [TBHQ, t-butyl hydroquinone] |  |  | 211.51 | 18.55 | 42.80 | 10.89 | 31.44 | 54.16 |  |  | MBC (P. acnes NCTC 737 [1]; [7]): 15.6 µg/mL (≈ 93.9 µM); MBC (P. acnes NCTC 737 [1]; [8]): 15.6 µg/mL (≈ 93.9 µM); MIC (S. aureus ATCC 29213 [2]; [9]): 7.8 µg/mL (≈ 46.9 µM); MIC (S. aureus ATCC 29213 [2]; Staphylococcus aureus, ATCC29213): 7.8 µg/mL (≈ 46.9 µM); MBC (S. aureus ATCC 29213 [3]; Staphylococcus aureus, ATCC29213, S. aureus ATCC 29213, Table 5 (Example 5)): 15.6 µg/mL (≈ 93.9 µM); MBC (S. aureus ATCC 29213 [3]; Staphylococcus aureus, ATCC29213, S. aureus ATCC 29213, Table 1 (Example 1)): 7.8 µg/mL (≈ 46.9 µM); MIC (P. acnes NCTC 737 [4]; [7]): 7.8 µg/mL (≈ 46.9 µM); MIC (P. acnes NCTC 737 [4]; [8]): 7.8 µg/mL (≈ 46.9 µM)
CC1=CC(=O)C(C(C)C)=CC1=O [thymoquinone, 2-iso-propyl-5-methyl-p-benzoquinone] |  |  | 79.46 | 9.33 | 36.79 | 0.0 | 18.99 | 20.54 |  |  | MBC (P. acnes NCTC 737 [1]; [12]): 31.2 µg/mL (≈ 190 µM); MIC (S. aureus ATCC 29213 [2]; [10]): 7.8 µg/mL (≈ 47.5 µM); MBC (S. aureus ATCC 29213 [3]; [11]): 15.6 µg/mL (≈ 95 µM); MIC (P. acnes NCTC 737 [4]; [13]): 15.6 µg/mL (≈ 95 µM)
Cc1c(O)ccc(O)c1C [2,3-dimethyl-p-hydroquinone] | 7.8 (≈ 56.5 µM) | 7.8 (≈ 56.5 µM) | 113.68 | 10.63 | 33.65 | 14.32 | 35.80 | 34.24 | 15.6 (≈ 113 µM) | 7.8 (≈ 56.5 µM) | 
Oc1ccc(O)cc1 [p-hydroquinone] | 62.5 (≈ 568 µM) | >250 | 87.01 | 8.91 | 33.16 | 14.01 | 15.56 | 16.61 | >250 | 62.5 (≈ 568 µM) | 
O=C1C=CC(=O)C=C1 [p-benzoquinone] |  |  | 77.78 | 8.29 | 33.16 | 20.31 | 29.05 | 27.49 |  |  | MBC (P. acnes NCTC 737 [1]; [12]): 62.5 µg/mL (≈ 578 µM); MIC (P. acnes NCTC 737 [4]; [13]): 62.5 µg/mL (≈ 578 µM)
CCc1cc(O)ccc1O [2-ethyl-p-hydroquinone] | 7.8 (≈ 56.5 µM) | 7.8 (≈ 56.5 µM) | 84.28 | 8.23 | 31.25 | 17.74 | 23.04 | 24.59 | 31.25 (≈ 226 µM) | 15.6 (≈ 113 µM) | 
